Measured values taken from ChEMBL document CHEMBL4725238, “Methylene blue-based 7-nitro-1,2,3-benzoxadiazole NIR fluorescent probe triggered by HS” (Bioorg Med Chem Lett, 2020).
Activity calls are given as the source filed them. The calls are words filed in the database; no cut-off is given here.

Experiments:
[1] = Bromide reactivity in pH 7 C2H5OH/PBS assessed as change in fluorescence at 50 uM
[2] = Chloride reactivity in pH 7 C2H5OH/PBS assessed as change in fluorescence at 50 uM
[3] = Iodide reactivity in pH 7 C2H5OH/PBS assessed as change in fluorescence at 50 uM
[4] = Thiocyanate reactivity in pH 7 C2H5OH/PBS assessed as change in fluorescence at 50 uM
[5] = […] reactivity in pH 7 C2H5OH/PBS assessed as change in fluorescence at 50 uM
[6] = Sulfate reactivity in pH 7 C2H5OH/PBS assessed as change in fluorescence at 50 uM
[7] = Bicarbonate reactivity in pH 7 C2H5OH/PBS assessed as change in fluorescence at 50 uM
[8] = Nitrate reactivity in pH 7 C2H5OH/PBS assessed as change in fluorescence at 50 uM
[9] = Acetate reactivity in pH 7 C2H5OH/PBS assessed as change in fluorescence at 50 uM
[10] = Potassium reactivity in pH 7 C2H5OH/PBS assessed as change in fluorescence at 50 uM
[11] = Sodium reactivity in pH 7 C2H5OH/PBS assessed as change in fluorescence at 50 uM
[12] = Zinc reactivity in pH 7 C2H5OH/PBS assessed as change in fluorescence at 50 uM
[13] = Phosphoric acid reactivity in pH 7 C2H5OH/PBS assessed as change in fluorescence at 50 uM
[14] = Cysteine reactivity in pH 7 C2H5OH/PBS assessed as change in fluorescence at 50 uM
[15] = Glutathione reactivity in pH 7 C2H5OH/PBS assessed as change in fluorescence at 50 uM
[16] = Cytotoxicity against human HCT-116 cells assessed as cell viability up to 50 uM incubated for 24 hrs by CCK8 assay relative to control; format: cell-based; settings: read-out: Activity
[17] = Cytotoxicity against human HCT-116 cells assessed as cell viability at 10 uM incubated for 24 hrs by CCK8 assay relative to control; format: cell-based; settings: read-out: Activity
[18] = Hydrogen sulphide reactivity in pH 7 C2H5OH/PBS assessed as change in fluorescence at 50 uM
[19] = Drug accumulation in human HCT116 cells up to 100 uM in presence of Na2S; format: ADME, cell-based; settings: hct-116

CN(C)c1ccc2c(c1)Sc1cc(N(C)C)ccc1N2c1ccc([N+](=O)[O-])c2nonc12
Activity [1]: inactive | Activity [2]: inactive | Activity [3]: inactive | Activity [4]: inactive | Activity [5]: inactive | Activity [6]: inactive | Activity [7]: inactive | Activity [8]: inactive | Activity [9]: inactive | Activity [10]: inactive | Activity [11]: inactive | Activity [12]: inactive | Activity [13]: inactive | Activity [14]: Active | Activity [15]: Active | viability at 24 h [16]: 64% | viability at 24 h, 10 µM [17]: > 85% | Activity [18]: Active | Drug uptake [19]: Active
